Experimental data as given in patent publication US12565490B2, “Inhibitors of Receptor Interacting Protein Kinase I for the treatment of disease” (Board of Regents, The University of Texas System, priority 2020, dated 2026).

Tested on: human monocytic cell line U937
Experiment: Human U937 cellular necroptosis assay
Format: cell-based
Details: U-937; U937 cells stimulated with 25 ng/mL human TNFalpha and 25 μM z-VAD-FMK; 22 hr; viability by Cell Titer-Glo 2.0; read-out: hU937 IC50
Procedure, shortened: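 U937 cells (5000/well) driven to necroptosis by 25 ng/mL human TNFalpha plus 25 μM z-VAD-FMK alongside 1:3-diluted compounds, 22 hr at 37° C, 5% CO2. Viability by CellTiter-Glo luminescence; IC50 from four-parameter logistic fit.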

Structure (SMILES) | IC50
Cc1cnc(C(=O)N[C@H]2COc3cc(Cl)cnc3N(C)C2=O)nc1-c1cnccn1 [Example 123, (S)-N-(8-chloro-5-methyl-4-oxo-2,3,4,5-tetrahydro-pyrido[3,2-b][1,4]oxazepin-3-yl)-5-methyl-4-(pyrazin-2-yl)-pyrimidine-2-carboxamide] | 48.5 nM
CN1C(=O)[C@@H](NC(=O)c2ncc(Cl)c(-c3ccc(F)cc3F)n2)COc2ccc(OCC(CO)CCl)cc21 (stereo partly drawn) [Example 147, 5-chloro-N-((3S)-7-(3-chloro-2-(hydroxymethyl)propoxy)-5-methyl-4-oxo-2,3,4,5-tetrahydrobenzo[b]-[1,4]oxazepin-3-yl)-4-(2,4-difluorophenyl)pyrimidine-2-carboxamide] | 20.9 nM
Cc1cnc(C(=O)N[C@H]2COc3cc(C#N)ccc3N(C)C2=O)nc1-c1ccccc1 [Example 5, (S)-N-(8-cyano-5-methyl-4-oxo-2,3,4,5-tetrahydro-benzo[b][1,4]oxazepin-3-yl)-5-methyl-4-phenylpyrimidine-2-carboxamide] | 15.1 nM
Cc1cnc(C(=O)NC2CCn3nc(C(F)(F)F)cc3N(C)C2=O)nc1-c1ccccc1 (centres unmarked) [Example 15, 5-methyl-N-(4-methyl-5-oxo-2-(trifluoromethyl)-5,6,7,8-tetrahydro-4H-pyrazolo[1,5-a][1,3]diazepin-6-yl)-4-phenyl-pyrimidine-2-carboxamide] | 498 nM
[2H]C([2H])([2H])N1C(=O)[C@@H](NC(=O)c2ncc(C)c(-c3ccccc3F)n2)COc2cc(F)cnc21 [Example 170, (S)—N-(8-fluoro-5-(methyl-d3)-4-oxo-2,3,4,5-tetrahydropyrido[3,2-b][1,4]oxazepin-3-yl)-4-(2-fluorophenyl)-5-methylpyrimidine-2-carboxamide] | 15.8 nM
Cc1ccc(-c2nc(C(=O)N[C@H]3COc4cc(C#N)ccc4N(C)C3=O)ncc2C)c(F)c1 [Example 30, (S)-N-(8-cyano-5-methyl-4-oxo-2,3,4,5-tetrahydro-benzo[b][1,4]oxazepin-3-yl)-4-(2-fluoro-4-methylphenyl)-5-methylpyrimidine-2-carboxamide] | 32.3 nM
CN1C(=O)[C@@H](NC(=O)c2ncc(Cl)c(-c3ccc(Cl)cc3)n2)COc2cccnc21 [Example 52, (S)-5-chloro-4-(4-chlorophenyl)-N-(5-methyl-4-oxo-2,3,4,5-tetrahydro-pyrido[3,2-b][1,4]oxazepin-3-yl)pyrimidine-2-carboxamide] | 12 nM
Cc1cnc(C(=O)N[C@H]2COc3cccnc3N(C)C2=O)nc1C12CCC(CC1)CC2 [Example 57, (S)-4-(bicyclo[2.2.2]octan-1-yl)-5-methyl-N-(5-methyl-4-oxo-2,3,4,5-tetrahydro-pyrido[3,2-b][1,4]oxazepin-3-yl)pyrimidine-2-carboxamide] | 90.9 nM
[2H]C([2H])([2H])c1cnc(C(=O)N[C@H]2COc3cc(F)cnc3N(C([2H])([2H])[2H])C2=O)nc1-c1ccccc1F [Example 169, (S)—N-(8-fluoro-5-(methyl-d3)-4-oxo-2,3,4,5-tetrahydropyrido[3,2-b][1,4]oxazepin-3-yl)-4-(2-fluorophenyl)-5-(methyl-d3)pyrimidine-2-carboxamide] | 20.9 nM
CN1C(=O)[C@@H](NC(=O)c2ncc(Cl)c(-c3ccc(Cl)cc3)n2)COc2cc(C#N)ccc21 [Example 131, (S)-5-chloro-4-(4-chlorophenyl)-N-(8-cyano-5-methyl-4-oxo-2,3,4,5-tetrahydrobenzo[b]-[1,4]oxazepin-3-yl)pyrimidine-2-carboxamide] | 22.1 nM
CN1C(=O)[C@@H](NC(=O)c2ncc(CN)c(-c3ccccc3)n2)COc2cc(Cl)cnc21 [Example 162, (S)-5-(aminomethyl)-N-(8-chloro-5-methyl-4-oxo-2,3,4,5-tetrahydropyrido[3,2-b][1,4]oxazepin-3-yl)-4-phenylpyrimidine-2-carboxamide] | 122 nM
Cc1cnc(C(=O)NC2CCc3cc(F)cc(F)c3NC2=O)nc1-c1ccccc1 (centres unmarked) [Example 7, N-(7,9-difluoro-2-oxo-2,3,4,5-tetrahydro-1H-benzo[b]azepin-3-yl)-5-methyl-4-phenylpyrimidine-2-carboxamide] | 22.2 nM
Cc1cnc(C(=O)N[C@H]2COc3cc(Cl)cnc3N(C)C2=O)nc1-c1ccncc1F [Example 120, (S)-N-(8-chloro-5-methyl-4-oxo-2,3,4,5-tetrahydro-pyrido[3,2-b][1,4]oxazepin-3-yl)-4-(3-fluoropyridin-4-yl)-5-methylpyrimidine-2-carboxamide] | 134 nM
Cc1ccc(-c2nc(C(=O)N[C@H]3COc4cccnc4N(C)C3=O)ncc2Cl)cc1F [Example 54, (S)-5-chloro-4-(3-fluoro-4-methylphenyl)-N-(5-methyl-4-oxo-2,3,4,5-tetrahydro-pyrido[3,2-b][1,4]oxazepin-3-yl)pyrimidine-2-carboxamide] | 13.6 nM
Cc1cnc(C(=O)N[C@H]2COc3cc(Cl)cnc3N(C)C2=O)nc1-c1cccc(F)c1F [Example 117, (S)-N-(8-chloro-5-methyl-4-oxo-2,3,4,5-tetrahydro-pyrido[3,2-b][1,4]oxazepin-3-yl)-4-(2,3-difluorophenyl)-5-methylpyrimidine-2-carboxamide] | 14.1 nM
CN1C(=O)[C@@H](NC(=O)c2ncc(CO)c(-c3ccccc3)n2)COc2cc(Cl)cnc21 [Example 126, (S)-N-(8-chloro-5-methyl-4-oxo-2,3,4,5-tetrahydro-pyrido[3,2-b][1,4]oxazepin-3-yl)-5-(hydroxymethyl)-4-phenylpyrimidine-2-carboxamide] | 30 nM
CN1C(=O)[C@@H](NC(=O)c2ncc(Cl)c(-c3cccc(Cl)c3)n2)COc2cc(F)cnc21 [Example 81, (S)-5-chloro-4-(3-chlorophenyl)-N-(8-fluoro-5-methyl-4-oxo-2,3,4,5-tetrahydropyrido[3,2-b]-[1,4]oxazepin-3-yl)pyrimidine-2-carboxamide] | 29.6 nM
CN1C(=O)[C@@H](NC(=O)c2ncc(Cl)c(-c3cc(F)ccc3F)n2)COc2ccc(NCC3(CCl)CCOCC3)cc21 [Example 142, (S)-5-chloro-N-(7-(((4-(chloromethyl)tetrahydro-2H-pyran-4-yl)methyl)amino)-5-methyl-4-oxo-2,3,4,5-tetrahydrobenzo[b]-[1,4]oxazepin-3-yl)-4-(2,5-difluorophenyl)pyrimidine-2-carboxamide] | 19 nM
Cc1cnc(C(=O)Nc2cccc(Cl)c2F)nc1-c1ccccc1 [Example 18, N-(3-chloro-2-fluorophenyl)-5-methyl-4-phenylpyrimidine-2-carboxamide] | 1890 nM
Cc1cc(F)cc(F)c1-c1ccnc(C(=O)N[C@H]2COc3cc(F)cnc3N(C)C2=O)n1 [Example 64, (S)-4-(2,4-difluoro-6-methylphenyl)-N-(8-fluoro-5-methyl-4-oxo-2,3,4,5-tetrahydropyrido[3,2-b]-[1,4]oxazepin-3-yl)pyrimidine-2-carboxamide] | 189 nM
Cc1ccc(-c2nc(C(=O)N[C@H]3COc4cc(C#N)ccc4N(C)C3=O)ncc2C)cc1 [Example 137, (S)-N-(8-cyano-5-methyl-4-oxo-2,3,4,5-tetrahydrobenzo[b]-[1,4]oxazepin-3-yl)-5-methyl-4-(p-tolyl)pyrimidine-2-carboxamide] | 18.8 nM
CN1C(=O)[C@@H](NC(=O)c2ncc(Cl)c(-c3ccc(F)cc3)n2)COc2cc(C#N)ccc21 [Example 129, (S)-5-chloro-N-(8-cyano-5-methyl-4-oxo-2,3,4,5-tetrahydrobenzo[b]-[1,4]oxazepin-3-yl)-4-(4-fluorophenyl)pyrimidine-2-carboxamide] | 13.8 nM
Cc1cnc(C(=O)N[C@H]2COc3cc(C#N)ccc3N(C)C2=O)nc1-c1ccc(F)c(F)c1 [Example 17, (S)-N-(8-cyano-5-methyl-4-oxo-2,3,4,5-tetrahydro-benzo[b][1,4]oxazepin-3-yl)-4-(3,4-difluorophenyl)-5-methyl-pyrimidine-2-carboxamide] | 40.8 nM
Cc1cnn(-c2ccc3c(c2)N(C)C(=O)[C@@H](NC(=O)c2ncc(Cl)c(-c4ccc(F)cc4F)n2)CO3)c1 [Example 152, (S)-5-chloro-4-(2,4-difluorophenyl)-N-(5-methyl-7-(4-methyl-1H-pyrazol-1-yl)-4-oxo-2,3,4,5-tetrahydrobenzo[b]-[1,4]oxazepin-3-yl)pyrimidine-2-carboxamide] | 29.2 nM
CN1C(=O)[C@@H](NC(=O)c2ncc(Cl)c(-c3ccccc3)n2)COc2cccnc21 [Example 27, (S)-5-chloro-N-(5-methyl-4-oxo-2,3,4,5-tetrahydropyrido[3,2-b][1,4]oxazepin-3-yl)-4-phenylpyrimidine-2-carboxamide] | 26.7 nM
Cc1cnc(C(=O)N[C@H]2COc3cc(C#N)ccc3N(C)C2=O)nc1C12CCC(CC1)CC2 [Example 133, (S)-4-(bicyclo[2.2.2]octan-1-yl)-N-(8-cyano-5-methyl-4-oxo-2,3,4,5-tetrahydrobenzo[b]-[1,4]oxazepin-3-yl)-5-methylpyrimidine-2-carboxamide] | 160 nM
Cc1ccn(-c2nc(C(=O)N[C@H]3COc4cc(Cl)cnc4N(C)C3=O)ncc2Cl)n1 [Example 107, (S)-5-chloro-N-(8-chloro-5-methyl-4-oxo-2,3,4,5-tetrahydropyrido [3,2-b]-[1,4]oxazepin-3-yl)-4-(3-methyl-1H-pyrazol-1-yl)-pyrimidine-2-carboxamide] | 606 nM
COc1cnc(C(=O)N[C@H]2COc3cc(Cl)cnc3N(C)C2=O)nc1-c1ccccc1 [Example 125, (S)-N-(8-chloro-5-methyl-4-oxo-2,3,4,5-tetrahydro-pyrido[3,2-b][1,4]oxazepin-3-yl)-5-methoxy-4-phenylpyrimidine-2-carboxamide] | 128 nM
CN1C(=O)[C@@H](NC(=O)c2ncc(Cl)c(-c3cccc(F)c3F)n2)COc2cc(F)cnc21 [Example 72, (S)-5-chloro-4-(2,3-difluorophenyl)-N-(8-fluoro-5-methyl-4-oxo-2,3,4,5-tetrahydropyrido[3,2-b]-[1,4]oxazepin-3-yl)pyrimidine-2-carboxamide] | 25.5 nM
